{
  "source": "patent US20230174947A1",
  "about": "“METHODS AND COMPOSITIONS FOR IMPROVING ENDOTHELIAL CELL BARRIER” (United Therapeutics Corporation, priority 2021, published 2023)",
  "test_system": "HPAECs",
  "test": "HPAEC proliferation, cell counts by Hoechst-stained nuclei (Celigo)",
  "type": "cell-based, Human",
  "conditions": "Forskolin 40 μM, FTY720-P 50 nM, Methylprednisolone 1 μM; MCDB131",
  "method": "HPAECs were seeded at low initial confluency (3000-5000 cells/cm^2) to study their growth on Collagen type-I coated culture dishes. Barrier agonists were added at 0 hours (FIG. 10A) or at 48 hours (FIG. 10B) and were maintained through the remainder of culture. Barrier agonist compounds, when added to the culture medium (MCDB131), were added at the following concentrations: Forskolin (40 μM), FTY720-P (50 nM), Methylprednisolone (1 μM). Cell counts were measured through individual quantification of nuclei, stained with Hoechst dye and imaged on the Celigo Imaging Cytometer (Nexcelom Bioscience).",
  "data": [
    {"smiles": "CCCCCCCCc1ccc(CC[C@](N)(CO)COP(=O)(O)O)cc1", "note": "[FTY720P, fingolimod-phosphate]", "values": [
      {"measurement": "endothelial cell proliferation (summary statement of Example 6)", "value": "no reduction in endothelial proliferation"}
    ]}
  ]
}
